Format in all cases: functional
Assay [1] can be described thus: Neuroprotective activity in OF1/SPF […] brain dopaminergic neurons assessed as suppression of long-term rotenone-induced cell death at 0.1 to 10 uM incubated concomitantly with rotenone from days 6 to 12.
The nature of assay [2]: Neuroprotective activity in OF1/SPF […] brain dopaminergic neurons assessed as suppression of MPP+-induced cell death at 0.1 to 10 uM pre-incubated for 4 days tarting from day 8 before MPP+ challenge for 48 hrs.
A short description of assay [3]: Neuroprotective activity in OF1/SPF […] brain dopaminergic neurons assessed as suppression of short-term rotenone -induced cell death at 0.1 to 10 uM pre-incubated for 4 days starting from day 8 before rotenone challenge for 48 hrs.

Structures are written as SMILES.

For the compound `CC1=CC(=O)C(C(C)C)=CC1=O` [THYMOQUINONE], the Activity in assay [1] is given as 24%; in assay [2], 40%; in assay [3], 33%.
